These results are taken from patent publication US6274557A, “Inhibition of nitric oxide synthase by amino acids and dipeptides” (Northwestern University, priority 1999, dated 2001).

“And” between values parts separate entries of the source, which are not always exact repeats. Identical values can stand only once. Like-named read-outs stand apart in the source and are kept apart here. Peptide text beside a SMILES is read from it.

The target in assay [1] is neuronal nitric oxide synthase (nNOS) from bovine brain (Bos taurus, UniProt A0A3Q1M6M2). Description: Hemoglobin capture assay of nitric oxide formation, nNOS. To be noted: for most potent inhibitors (based on isoform inhibition data): dipeptide amides of Table 3; for nNOS/iNOS selectivity / nNOS/eNOS selectivity: Table 2 dipeptides; for nNOS/iNOS selectivity: in favor of nNOS over iNOS; for nNOS/eNOS selectivity: nNOS over eNOS; for time-dependent inhibition of any of the isoforms: nNOS, iNOS and eNOS.
Protocol: (§1) Nitric oxide formation was measured by using the hemoglobin capture assay. […] The production of nitric oxide by eNOS was measured as described. […] All assays were in a final volume of 600 μL and were initiated with enzyme.
(§2) The reversible inhibition of NOS by the dipeptide analogs was studied under initial rate conditions with the hemoglobin assay as described above. […] With various L-arginine and inhibitor concentrations.

The target in assay [2] is T1, recombinant bovine endothelial nitric oxide synthase (eNOS) (Bos taurus, UniProt P29473).
T1 construct: made in house; host or cells: E. coli
Put plainly: Hemoglobin capture assay of nitric oxide formation, eNOS. The format is biochemical.
Protocol: as §1, §2

For assay [3], the target named is recombinant murine macrophage nitric oxide synthase (iNOS) (Mus musculus, UniProt P29477). Description: Hemoglobin capture assay of nitric oxide formation, iNOS. The settings on record: for iNOS/eNOS selectivity: Table 2 dipeptides.
Protocol: as §1, §2
Where [4] appears, read: read-out: Ki nNOS, Table 2, Dixon plots.
Where [5] appears, read: read-out: Ki iNOS, Table 2, Dixon plots, ^a = uncompetitive inhibition.

Chain of neuronal nitric oxide synthase (nNOS) from bovine brain (A0A3Q1M6M2 entry or part of it): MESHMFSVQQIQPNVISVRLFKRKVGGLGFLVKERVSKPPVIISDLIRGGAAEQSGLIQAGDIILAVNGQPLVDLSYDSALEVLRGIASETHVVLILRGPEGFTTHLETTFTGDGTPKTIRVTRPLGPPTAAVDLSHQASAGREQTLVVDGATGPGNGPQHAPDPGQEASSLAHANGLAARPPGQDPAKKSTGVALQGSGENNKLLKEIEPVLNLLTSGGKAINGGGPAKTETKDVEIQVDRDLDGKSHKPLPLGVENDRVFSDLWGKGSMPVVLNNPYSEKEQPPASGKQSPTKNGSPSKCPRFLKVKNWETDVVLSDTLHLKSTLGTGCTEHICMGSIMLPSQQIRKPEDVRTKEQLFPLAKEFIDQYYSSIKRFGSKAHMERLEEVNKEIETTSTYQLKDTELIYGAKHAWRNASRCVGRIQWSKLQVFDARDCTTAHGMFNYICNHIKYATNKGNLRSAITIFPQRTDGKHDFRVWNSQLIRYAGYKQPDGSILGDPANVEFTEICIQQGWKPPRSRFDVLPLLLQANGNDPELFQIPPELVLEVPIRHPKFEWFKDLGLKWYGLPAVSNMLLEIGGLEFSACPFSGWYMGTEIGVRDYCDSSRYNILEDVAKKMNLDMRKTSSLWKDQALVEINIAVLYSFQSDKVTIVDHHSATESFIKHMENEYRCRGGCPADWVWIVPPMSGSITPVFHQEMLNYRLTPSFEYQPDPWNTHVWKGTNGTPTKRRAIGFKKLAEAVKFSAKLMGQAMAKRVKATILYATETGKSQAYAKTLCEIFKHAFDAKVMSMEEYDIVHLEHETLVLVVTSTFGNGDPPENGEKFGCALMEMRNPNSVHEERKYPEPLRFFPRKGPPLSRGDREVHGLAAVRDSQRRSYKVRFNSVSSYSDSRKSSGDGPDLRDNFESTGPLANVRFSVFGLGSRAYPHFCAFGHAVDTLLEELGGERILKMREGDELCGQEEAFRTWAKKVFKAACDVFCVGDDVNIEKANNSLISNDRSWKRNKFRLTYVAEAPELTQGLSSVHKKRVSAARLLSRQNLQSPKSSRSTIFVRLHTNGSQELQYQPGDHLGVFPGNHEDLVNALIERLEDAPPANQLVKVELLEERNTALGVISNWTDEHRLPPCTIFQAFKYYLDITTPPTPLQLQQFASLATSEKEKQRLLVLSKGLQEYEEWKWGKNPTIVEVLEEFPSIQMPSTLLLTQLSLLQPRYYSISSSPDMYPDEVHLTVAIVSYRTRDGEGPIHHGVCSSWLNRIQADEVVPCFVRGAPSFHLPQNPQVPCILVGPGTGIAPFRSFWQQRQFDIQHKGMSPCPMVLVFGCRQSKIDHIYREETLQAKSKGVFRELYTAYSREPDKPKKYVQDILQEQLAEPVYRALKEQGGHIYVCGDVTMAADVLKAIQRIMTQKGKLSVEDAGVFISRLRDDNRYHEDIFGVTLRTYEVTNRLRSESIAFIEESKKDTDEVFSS

Consider `N=C(NCCC[C@@H](NC(=O)[C@H](N)CCCCN)C(N)=O)N[N+](=O)[O-]` [D-Lys-D-nitroArg] (HELM PEPTIDE1{[dK].[N=C(NCCC[C@@H](N[*:1])C(=O)[*:2])N[N+](=O)[O-]].[am]}$$$$V2.0), for which the “most potent inhibitors (based on isoform inhibition data)” value in assay [1] is “most potent”.
On the same count and under the same terms, under `N=C(NCCC[C@@H](NC(=O)[C@H](N)CCCN)C(N)=O)N[N+](=O)[O-]` [D-Orn-D-nitroArg] (HELM PEPTIDE1{[NCCC[C@@H](N)C(=O)[*:2]].[N=C(NCCC[C@@H](N[*:1])C(=O)[*:2])N[N+](=O)[O-]].[am]}$$$$V2.0) stands “most potent”.
Still for that read-out and setting: under `N=C(NCCC[C@@H](NC(=O)[C@@H](N)Cc1cnc[nH]1)C(N)=O)N[N+](=O)[O-]` [L-His-D-nitroArg] (HELM PEPTIDE1{H.[N=C(NCCC[C@@H](N[*:1])C(=O)[*:2])N[N+](=O)[O-]].[am]}$$$$V2.0) stands “most potent”.
Same read-out and setting: under `N=C(NCCC[C@@H](NC(=O)[C@@H](N)CCCCN)C(N)=O)N[N+](=O)[O-]` [L-Lys-D-nitroArg] (HELM PEPTIDE1{K.[N=C(NCCC[C@@H](N[*:1])C(=O)[*:2])N[N+](=O)[O-]].[am]}$$$$V2.0) stands “most potent”.
`N=C(NCCC[C@H](N)C(=O)N[C@H](CC(N)=O)C(N)=O)N[N+](=O)[O-]` [L-nitroArg-D-Asn] (HELM PEPTIDE1{[N=C(NCCC[C@H](N)C(=O)[*:2])N[N+](=O)[O-]].[dN].[am]}$$$$V2.0): the “most potent inhibitors (based on isoform inhibition data)” value in assay [1] was “most potent”.
On the same count and under the same terms, the result for `N=C(NCCC[C@H](N)C(=O)N[C@H](CCC(N)=O)C(N)=O)N[N+](=O)[O-]` [L-nitroArg-D-Gln] (HELM PEPTIDE1{[N=C(NCCC[C@H](N)C(=O)[*:2])N[N+](=O)[O-]].[dQ].[am]}$$$$V2.0) reads “most potent”; that for `N=C(NCCC[C@H](N)C(=O)N[C@@H](CCN)C(=O)O)N[N+](=O)[O-]` [L-nitroArg-L-Dbu, L-nitroArg-L-2,4-diaminobutanoic acid] (HELM PEPTIDE1{[N=C(NCCC[C@H](N)C(=O)[*:2])N[N+](=O)[O-]].[Dab]}$$$$V2.0), “most potent”.
The same measure, in the same setting: under `N=C(NCCC[C@H](N)C(=O)N[C@@H](CN)C(=O)O)N[N+](=O)[O-]` [L-nitroArg-L-Dpr, L-nitroArg-L-2,3-diaminopropanoic acid] (HELM PEPTIDE1{[N=C(NCCC[C@H](N)C(=O)[*:2])N[N+](=O)[O-]].[NC[C@H](N[*:1])C(=O)O]}$$$$V2.0) stands “most potent”.
Turning to `C=CCNC(=N)NCCC[C@H](N)C(=O)O` [allyl, N^ω -allyl-L-arginine, reference compound], the Ki turned out to be 3.1 µM in assay [2] (Table 1), 0.2 µM in assay [1] and 2.1 µM in assay [3]. In addition, in assay [1], the “Selectivity nNOS/eNOS” value was 15 and 15.5.
With `N=C(NCCC[C@H](N)C(=O)N[C@@H](Cc1ccccc1)C(=O)O)N[N+](=O)[O-]` [compound 1, L-Arg^NO2 L-Phe], in assay [2] (Table 2, Dixon plots), the Ki was found to be 395 µM. Further, in assay [1], the nNOS/iNOS selectivity came out at 8.9, the nNOS/eNOS selectivity was 21.9 and the “time-dependent inhibition of any of the isoforms” value is “None”. Besides, the Ki in assay [1] (setting [4]) worked out at 18 µM. Further, the iNOS/eNOS selectivity in assay [3] is listed as 2.5. In assay [3] (setting [5]), the Ki was 160 µM.
`N=C(NCCC[C@H](NC(=O)[C@@H](N)Cc1ccccc1)C(=O)O)N[N+](=O)[O-]` [compound 2, L-Phe-L-Arg^NO2] (HELM PEPTIDE1{F.[N=C(NCCC[C@H](N[*:1])C(=O)O)N[N+](=O)[O-]]}$$$$V2.0): the Ki in assay [2] (Table 2, Dixon plots) came to 490 µM. Besides, in assay [1], the nNOS/iNOS selectivity came to 0.66, the nNOS/eNOS selectivity came out at 3.5 and the “time-dependent inhibition of any of the isoforms” value is given as “None”. Further, in assay [1] (setting [4]), the Ki was found to be 140 µM. Further, the iNOS/eNOS selectivity in assay [3] is 5.3. In assay [3] (setting [5]), the Ki worked out at 93 µM.
For `COC(=O)[C@H](Cc1ccccc1)NC(=O)[C@@H](N)CCCNC(=N)N[N+](=O)[O-]` [compound 3, L-Arg^NO2 -L-Phe-OMe], the Ki was determined as 400 µM in assay [2] (Table 2, Dixon plots); 14 µM in assay [1] (setting [4]); 45 µM in assay [3] (setting [5]). For the same molecule, the nNOS/iNOS selectivity in assay [1] is 3.2. The nNOS/eNOS selectivity in assay [1] is listed as 28.6. In addition, the iNOS/eNOS selectivity in assay [3] is listed as 8.9.
Turning to `COC(=O)[C@H](CCCNC(=N)N[N+](=O)[O-])NC(=O)[C@@H](N)Cc1ccccc1` [compound 4, L-Phe-L-Arg^NO2 -OMe] (HELM PEPTIDE1{F.[N=C(NCCC[C@H](N[*:1])C(=O)[*:2])N[N+](=O)[O-]].[CO[*:1]]}$$$$V2.0), the Ki in assay [2] (Table 2, Dixon plots) turned out to be 1350 µM; in assay [1] (setting [4]) it was 370 µM; in assay [3] (setting [5]), 204 µM. This molecule showed a nNOS/iNOS selectivity in assay [1] of 0.55. Further, the nNOS/eNOS selectivity in assay [1] is given as 3.6. Further, the iNOS/eNOS selectivity in assay [3] came to 6.6.
For the molecule `N=C(NCCC[C@H](N)C(=O)N[C@@H](Cc1ccccc1)C(=O)OCc1ccccc1)N[N+](=O)[O-]` [compound 5, L-Arg^NO2 -L-Phe-OBn], the Ki in assay [2] (Table 2, Dixon plots) came to 125 µM; in assay [1] (setting [4]) it was 55 µM; in assay [3] (setting [5]) it was 18 µM. The molecule also displayed a nNOS/iNOS selectivity in assay [1] of 0.33. Besides, the nNOS/eNOS selectivity in assay [1] was 2.3. In assay [3], the iNOS/eNOS selectivity was found to be 6.9.
`N=C(NCCC[C@H](NC(=O)[C@@H](N)Cc1ccccc1)C(=O)OCc1ccccc1)N[N+](=O)[O-]` [compound 6, L-Phe-L-Arg^NO2 -OBn] (HELM PEPTIDE1{F.[N=C(NCCC[C@H](N[*:1])C(=O)[*:2])N[N+](=O)[O-]].[c1ccc(CO[*:1])cc1]}$$$$V2.0): the Ki in assay [2] (Table 2, Dixon plots) was determined as 250 µM; in assay [1] (setting [4]), 110 µM; in assay [3] (setting [5]) it was 45 µM. This molecule also showed a nNOS/iNOS selectivity in assay [1] of 0.41. The nNOS/eNOS selectivity in assay [1] was 2.3. Further, in assay [3], the iNOS/eNOS selectivity worked out at 5.6.
In the case of `COC(=O)[C@@H](Cc1ccccc1)NC(=O)[C@@H](N)CCCNC(=N)N[N+](=O)[O-]` [compound 7, L-Arg^NO2 -D-Phe-OMe], the Ki stood at 525 µM in assay [2] (Table 2, Dixon plots); 92 µM in assay [1] (setting [4]); 100 µM in assay [3] (setting [5]). Also, the nNOS/iNOS selectivity in assay [1] worked out at 1.1. The molecule also gave a nNOS/eNOS selectivity in assay [1] of 5.7. For the same molecule, the iNOS/eNOS selectivity in assay [3] worked out at 5.3.
For `COC(=O)[C@H](Cc1ccccc1)NC(=O)[C@H](N)CCCNC(=N)N[N+](=O)[O-]` [compound 8, D-Arg^NO2 -L-Phe-OMe], the Ki in assay [2] (Table 2, Dixon plots) was 1400 µM; in assay [1] (setting [4]), 290 µM; in assay [3] (setting [5]), 6400 µM. Besides, in assay [1], the nNOS/iNOS selectivity is recorded as 22.1. The nNOS/eNOS selectivity in assay [1] is recorded as 4.8. Moreover, in assay [3], the iNOS/eNOS selectivity is recorded as 0.22.
With `COC(=O)[C@@H](Cc1ccccc1)NC(=O)[C@H](N)CCCNC(=N)N[N+](=O)[O-]` [compound 9, D-Arg^NO2 -D-Phe-OMe], the inhibition constant (Ki) in assay [2] (Table 2, Dixon plots) is 375 µM; in assay [1] (setting [4]), 150 µM; in assay [3] (setting [5]), 6500 µM. This molecule displayed a nNOS/iNOS selectivity in assay [1] of 43.3. For the same molecule, the nNOS/eNOS selectivity in assay [1] is reported as 2.5. In addition, the iNOS/eNOS selectivity in assay [3] stood at 0.058.
For `CNC(=N)NCCC[C@H](N)C(=O)O` [methyl, N^ω -methyl-L-arginine, reference compound], the IC50 in assay [1] turned out to be 10 µM. This lies in the double-digit micromolar range.
In assay [1], `C#CCNC(=N)NCCC[C@H](N)C(=O)O` [propargyl, N^ω -propargyl-L-arginine, reference compound] yielded a Ki of 0.43 µM.

As usually defined, the Ki is a measure of affinity in units of concentration, obtained from inhibition or displacement. As usually defined, the IC50 is the concentration that inhibits the measured activity by half. A higher IC50 goes with weaker potency in that assay.
